Data published in the NIST ThermoML archive (doi:10.1021/acs.jced.8b00854).

Assays:
[1] = xn = mol fraction of the nth substance listed; settings: 100 kPa, Liquid, Vibrating tube method
[2] = refractive index (Na D-line) (dimensionless); xn = mol fraction of the nth substance listed; settings: 100 kPa, Liquid, Standard Abbe refractometry

CCn1cc[n+](C)c1.O=S(=O)([O-])C(F)(F)F [1-ethyl-3-methylimidazolium trifluoromethanesulfonate] + O
Settings | mass density, [1] [kg/m3] | refractive index, [2]
293.15 K, x1 = 0.1001 | 1209.27 | 1.3885
293.15 K, x1 = 0.2002 | 1281.52 | 1.406
293.15 K, x1 = 0.3005 | 1315.51 | 1.4155
293.15 K, x1 = 0.4002 | 1336.6 | 1.421
293.15 K, x1 = 0.5003 | 1352.45 | 1.425
293.15 K, x1 = 0.5997 | 1364.43 | 1.4275
293.15 K, x1 = 0.6996 | 1372.69 | 1.43
293.15 K, x1 = 0.8011 | 1379.1 | 1.4315
293.15 K, x1 = 0.8992 | 1384.17 | 1.4325
303.15 K, x1 = 0.1001 | 1201.8 | 1.3865
303.15 K, x1 = 0.2002 | 1272.85 | 1.4055
303.15 K, x1 = 0.3005 | 1307.15 | 1.414
303.15 K, x1 = 0.4002 | 1328.01 | 1.4175
303.15 K, x1 = 0.5003 | 1343.96 | 1.423
303.15 K, x1 = 0.5997 | 1356.16 | 1.4255
303.15 K, x1 = 0.6996 | 1364.59 | 1.4275
303.15 K, x1 = 0.8011 | 1370.87 | 1.4295
303.15 K, x1 = 0.8992 | 1375.74 | 1.43
313.15 K, x1 = 0.1001 | 1193.23 | 1.386
313.15 K, x1 = 0.2002 | 1263.86 | 1.403
313.15 K, x1 = 0.3005 | 1298.67 | 1.412
313.15 K, x1 = 0.4002 | 1319.89 | 1.415
313.15 K, x1 = 0.5003 | 1335.41 | 1.421
313.15 K, x1 = 0.5997 | 1347.44 | 1.4235
313.15 K, x1 = 0.6996 | 1355.79 | 1.4255
313.15 K, x1 = 0.8011 | 1362.45 | 1.427
313.15 K, x1 = 0.8992 | 1367.34 | 1.4285
323.15 K, x1 = 0.1001 | 1184.96 | 1.3855
323.15 K, x1 = 0.2002 | 1254.13 | 1.4025
323.15 K, x1 = 0.3005 | 1289.63 | 1.411
323.15 K, x1 = 0.4002 | 1311.02 | 1.414
323.15 K, x1 = 0.5003 | 1326.85 | 1.42
323.15 K, x1 = 0.5997 | 1338.82 | 1.422
323.15 K, x1 = 0.6996 | 1347.42 | 1.4235
323.15 K, x1 = 0.8011 | 1353.98 | 1.4255
323.15 K, x1 = 0.8992 | 1359.01 | 1.426
333.15 K, x1 = 0.1001 | 1175.32 | 1.385
333.15 K, x1 = 0.2002 | 1243.01 | 1.4005
333.15 K, x1 = 0.3005 | 1279.6 | 1.4095
333.15 K, x1 = 0.4002 | 1301.89 | 1.413
333.15 K, x1 = 0.5003 | 1318.27 | 1.418
333.15 K, x1 = 0.5997 | 1329.91 | 1.418
333.15 K, x1 = 0.6996 | 1338.78 | 1.421
333.15 K, x1 = 0.8011 | 1345.55 | 1.423
333.15 K, x1 = 0.8992 | 1350.72 | 1.4237
343.15 K, x1 = 0.1001 | 1162.52 | 1.385
343.15 K, x1 = 0.2002 | 1232.07 | 1.3995
343.15 K, x1 = 0.3005 | 1269.41 | 1.409
343.15 K, x1 = 0.4002 | 1292.35 | 1.413
343.15 K, x1 = 0.5003 | 1309.53 | 1.417
343.15 K, x1 = 0.5997 | 1321.23 | 1.4175
343.15 K, x1 = 0.6996 | 1330.17 | 1.419
343.15 K, x1 = 0.8011 | 1336.93 | 1.421
343.15 K, x1 = 0.8992 | 1342.48 | 1.4215

CCCCCCCCOS(=O)(=O)[O-].CCCCn1cc[n+](C)c1 [1-butyl-3-methylimidazolium octyl sulfate] + O
Settings | mass density, [1] [kg/m3] | refractive index, [2]
293.15 K, x1 = 0.1002 | 1048.11 | 1.4235
293.15 K, x1 = 0.2002 | 1060.01 | 1.4455
293.15 K, x1 = 0.3004 | 1063.92 | 1.4555
293.15 K, x1 = 0.4004 | 1065.86 | 1.461
293.15 K, x1 = 0.501 | 1066.97 | 1.464
293.15 K, x1 = 0.5998 | 1067.84 | 1.467
293.15 K, x1 = 0.6988 | 1068.5 | 1.4685
293.15 K, x1 = 0.8 | 1069.33 | 1.47
293.15 K, x1 = 0.9018 | 1070.47 | 1.4705
303.15 K, x1 = 0.1002 | 1041.72 | 1.422
303.15 K, x1 = 0.2002 | 1052.71 | 1.4435
303.15 K, x1 = 0.3004 | 1057.16 | 1.453
303.15 K, x1 = 0.4004 | 1059.15 | 1.4585
303.15 K, x1 = 0.501 | 1060.3 | 1.462
303.15 K, x1 = 0.5998 | 1061.29 | 1.4645
303.15 K, x1 = 0.6988 | 1061.97 | 1.466
303.15 K, x1 = 0.8 | 1062.8 | 1.4675
303.15 K, x1 = 0.9018 | 1063.98 | 1.4685
313.15 K, x1 = 0.1002 | 1035.13 | 1.4215
313.15 K, x1 = 0.2002 | 1046.53 | 1.4415
313.15 K, x1 = 0.3004 | 1050.37 | 1.4525
313.15 K, x1 = 0.4004 | 1052.42 | 1.457
313.15 K, x1 = 0.501 | 1053.61 | 1.4595
313.15 K, x1 = 0.5998 | 1054.71 | 1.462
313.15 K, x1 = 0.6988 | 1055.42 | 1.4635
313.15 K, x1 = 0.8 | 1056.28 | 1.465
313.15 K, x1 = 0.9018 | 1057.53 | 1.466
323.15 K, x1 = 0.1002 | 1028.37 | 1.421
323.15 K, x1 = 0.2002 | 1039.57 | 1.4405
323.15 K, x1 = 0.3004 | 1043.56 | 1.45
323.15 K, x1 = 0.4004 | 1045.67 | 1.4555
323.15 K, x1 = 0.501 | 1046.92 | 1.457
323.15 K, x1 = 0.5998 | 1048.14 | 1.46
323.15 K, x1 = 0.6988 | 1048.87 | 1.461
323.15 K, x1 = 0.8 | 1049.77 | 1.462
323.15 K, x1 = 0.9018 | 1051.07 | 1.4635
333.15 K, x1 = 0.1002 | 1021.44 | 1.419
333.15 K, x1 = 0.2002 | 1032.54 | 1.44
333.15 K, x1 = 0.3004 | 1036.7 | 1.4495
333.15 K, x1 = 0.4004 | 1038.91 | 1.4535
333.15 K, x1 = 0.501 | 1040.19 | 1.4545
333.15 K, x1 = 0.5998 | 1041.4 | 1.4575
333.15 K, x1 = 0.6988 | 1042.35 | 1.4585
333.15 K, x1 = 0.8 | 1043.27 | 1.46
333.15 K, x1 = 0.9018 | 1044.63 | 1.461
343.15 K, x1 = 0.1002 | 1014.33 | 1.419
343.15 K, x1 = 0.2002 | 1025.58 | 1.4395
343.15 K, x1 = 0.3004 | 1029.67 | 1.4465
343.15 K, x1 = 0.4004 | 1032.07 | 1.452
343.15 K, x1 = 0.501 | 1033.23 | 1.453
343.15 K, x1 = 0.5998 | 1034.54 | 1.4565
343.15 K, x1 = 0.6988 | 1035.66 | 1.457
343.15 K, x1 = 0.8 | 1036.82 | 1.458
343.15 K, x1 = 0.9018 | 1038.23 | 1.459

CCCCn1cc[n+](C)c1.O=S(=O)([O-])C(F)(F)F [1-butyl-3-methylimidazolium trifluoromethanesulfonate] + O
Settings | mass density, [1] [kg/m3] | refractive index, [2]
293.15 K, x1 = 0.1001 | 1176.55 | 1.396
293.15 K, x1 = 0.2003 | 1227.39 | 1.4145
293.15 K, x1 = 0.3007 | 1251.78 | 1.421
293.15 K, x1 = 0.4003 | 1266.32 | 1.4265
293.15 K, x1 = 0.5001 | 1275.87 | 1.4301
293.15 K, x1 = 0.5998 | 1282.43 | 1.432
293.15 K, x1 = 0.6995 | 1287.53 | 1.434
293.15 K, x1 = 0.8017 | 1291.5 | 1.4355
293.15 K, x1 = 0.8993 | 1294.38 | 1.4365
303.15 K, x1 = 0.1001 | 1169.14 | 1.3945
303.15 K, x1 = 0.2003 | 1219.44 | 1.411
303.15 K, x1 = 0.3007 | 1243.64 | 1.4195
303.15 K, x1 = 0.4003 | 1258.57 | 1.4245
303.15 K, x1 = 0.5001 | 1267.92 | 1.428
303.15 K, x1 = 0.5998 | 1274.38 | 1.4305
303.15 K, x1 = 0.6995 | 1279.4 | 1.4315
303.15 K, x1 = 0.8017 | 1283.28 | 1.4335
303.15 K, x1 = 0.8993 | 1286.22 | 1.4345
313.15 K, x1 = 0.1001 | 1161.07 | 1.3925
313.15 K, x1 = 0.2003 | 1210.91 | 1.4095
313.15 K, x1 = 0.3007 | 1235.41 | 1.418
313.15 K, x1 = 0.4003 | 1250.38 | 1.423
313.15 K, x1 = 0.5001 | 1259.88 | 1.426
313.15 K, x1 = 0.5998 | 1266.41 | 1.4285
313.15 K, x1 = 0.6995 | 1271.39 | 1.43
313.15 K, x1 = 0.8017 | 1275.29 | 1.431
313.15 K, x1 = 0.8993 | 1278.29 | 1.4325
323.15 K, x1 = 0.1001 | 1153.14 | 1.3915
323.15 K, x1 = 0.2003 | 1201.99 | 1.409
323.15 K, x1 = 0.3007 | 1226.91 | 1.4175
323.15 K, x1 = 0.4003 | 1241.75 | 1.421
323.15 K, x1 = 0.5001 | 1251.81 | 1.4245
323.15 K, x1 = 0.5998 | 1258.46 | 1.4255
323.15 K, x1 = 0.6995 | 1263.41 | 1.4275
323.15 K, x1 = 0.8017 | 1267.34 | 1.429
323.15 K, x1 = 0.8993 | 1270.34 | 1.4305
333.15 K, x1 = 0.1001 | 1143.31 | 1.3905
333.15 K, x1 = 0.2003 | 1193.54 | 1.408
333.15 K, x1 = 0.3007 | 1218.41 | 1.4155
333.15 K, x1 = 0.4003 | 1233.39 | 1.42
333.15 K, x1 = 0.5001 | 1243.49 | 1.422
333.15 K, x1 = 0.5998 | 1250.25 | 1.424
333.15 K, x1 = 0.6995 | 1255.51 | 1.4255
333.15 K, x1 = 0.8017 | 1259.46 | 1.427
333.15 K, x1 = 0.8993 | 1262.47 | 1.428
343.15 K, x1 = 0.1001 | 1133.11 | 1.389
343.15 K, x1 = 0.2003 | 1184.05 | 1.405
343.15 K, x1 = 0.3007 | 1209.18 | 1.415
343.15 K, x1 = 0.4003 | 1224.41 | 1.4185
343.15 K, x1 = 0.5001 | 1234.79 | 1.4215
343.15 K, x1 = 0.5998 | 1241.97 | 1.423
343.15 K, x1 = 0.6995 | 1247.23 | 1.4235
343.15 K, x1 = 0.8017 | 1251.33 | 1.4255
343.15 K, x1 = 0.8993 | 1254.45 | 1.4265
